According to PMC5540273, “Progress towards a public chemogenomic set for protein kinases and a call for contributions” (PLoS ONE, 2017):

Tests used:
HIPK3 = HIPK3 (Homo sapiens, UniProt Q9H422); experiment: KINOMEscan competition binding; conditions: read-out: %Inh HIPK3
LIMK1 = LIMK1 (Homo sapiens, UniProt P53667); experiment: KINOMEscan competition binding; conditions: read-out: %Inh LIMK1
AURKA = target: T1, AURKA (Homo sapiens, UniProt O14965); experiment: KINOMEscan competition binding; conditions: read-out: %Inh AURKA
T1 sequence (O14965 1-403): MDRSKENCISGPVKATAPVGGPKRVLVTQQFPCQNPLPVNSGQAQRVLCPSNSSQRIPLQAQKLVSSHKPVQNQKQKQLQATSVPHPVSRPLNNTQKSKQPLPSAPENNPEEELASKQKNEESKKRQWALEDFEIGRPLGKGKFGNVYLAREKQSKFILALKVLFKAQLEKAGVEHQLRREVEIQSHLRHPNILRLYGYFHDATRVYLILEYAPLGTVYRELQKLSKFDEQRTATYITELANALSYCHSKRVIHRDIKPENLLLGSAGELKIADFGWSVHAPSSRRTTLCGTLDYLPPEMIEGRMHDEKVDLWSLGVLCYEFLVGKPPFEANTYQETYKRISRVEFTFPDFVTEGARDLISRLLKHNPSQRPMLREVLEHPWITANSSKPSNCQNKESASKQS

[1] = tested on: 392 wild-type human kinases; experiment: KINOMEscan assay panel, PKIS2 profiling; assay type: binding; conditions: 1 μM
Description: Since the assay was only run in singlicate it was important to follow up actives with Kd determinations.

LRRK2 = LRRK2 (Homo sapiens, UniProt Q5S007); experiment: KINOMEscan competition binding; conditions: read-out: %Inh LRRK2
LRRK2, sequence (Q5S007 whole entry): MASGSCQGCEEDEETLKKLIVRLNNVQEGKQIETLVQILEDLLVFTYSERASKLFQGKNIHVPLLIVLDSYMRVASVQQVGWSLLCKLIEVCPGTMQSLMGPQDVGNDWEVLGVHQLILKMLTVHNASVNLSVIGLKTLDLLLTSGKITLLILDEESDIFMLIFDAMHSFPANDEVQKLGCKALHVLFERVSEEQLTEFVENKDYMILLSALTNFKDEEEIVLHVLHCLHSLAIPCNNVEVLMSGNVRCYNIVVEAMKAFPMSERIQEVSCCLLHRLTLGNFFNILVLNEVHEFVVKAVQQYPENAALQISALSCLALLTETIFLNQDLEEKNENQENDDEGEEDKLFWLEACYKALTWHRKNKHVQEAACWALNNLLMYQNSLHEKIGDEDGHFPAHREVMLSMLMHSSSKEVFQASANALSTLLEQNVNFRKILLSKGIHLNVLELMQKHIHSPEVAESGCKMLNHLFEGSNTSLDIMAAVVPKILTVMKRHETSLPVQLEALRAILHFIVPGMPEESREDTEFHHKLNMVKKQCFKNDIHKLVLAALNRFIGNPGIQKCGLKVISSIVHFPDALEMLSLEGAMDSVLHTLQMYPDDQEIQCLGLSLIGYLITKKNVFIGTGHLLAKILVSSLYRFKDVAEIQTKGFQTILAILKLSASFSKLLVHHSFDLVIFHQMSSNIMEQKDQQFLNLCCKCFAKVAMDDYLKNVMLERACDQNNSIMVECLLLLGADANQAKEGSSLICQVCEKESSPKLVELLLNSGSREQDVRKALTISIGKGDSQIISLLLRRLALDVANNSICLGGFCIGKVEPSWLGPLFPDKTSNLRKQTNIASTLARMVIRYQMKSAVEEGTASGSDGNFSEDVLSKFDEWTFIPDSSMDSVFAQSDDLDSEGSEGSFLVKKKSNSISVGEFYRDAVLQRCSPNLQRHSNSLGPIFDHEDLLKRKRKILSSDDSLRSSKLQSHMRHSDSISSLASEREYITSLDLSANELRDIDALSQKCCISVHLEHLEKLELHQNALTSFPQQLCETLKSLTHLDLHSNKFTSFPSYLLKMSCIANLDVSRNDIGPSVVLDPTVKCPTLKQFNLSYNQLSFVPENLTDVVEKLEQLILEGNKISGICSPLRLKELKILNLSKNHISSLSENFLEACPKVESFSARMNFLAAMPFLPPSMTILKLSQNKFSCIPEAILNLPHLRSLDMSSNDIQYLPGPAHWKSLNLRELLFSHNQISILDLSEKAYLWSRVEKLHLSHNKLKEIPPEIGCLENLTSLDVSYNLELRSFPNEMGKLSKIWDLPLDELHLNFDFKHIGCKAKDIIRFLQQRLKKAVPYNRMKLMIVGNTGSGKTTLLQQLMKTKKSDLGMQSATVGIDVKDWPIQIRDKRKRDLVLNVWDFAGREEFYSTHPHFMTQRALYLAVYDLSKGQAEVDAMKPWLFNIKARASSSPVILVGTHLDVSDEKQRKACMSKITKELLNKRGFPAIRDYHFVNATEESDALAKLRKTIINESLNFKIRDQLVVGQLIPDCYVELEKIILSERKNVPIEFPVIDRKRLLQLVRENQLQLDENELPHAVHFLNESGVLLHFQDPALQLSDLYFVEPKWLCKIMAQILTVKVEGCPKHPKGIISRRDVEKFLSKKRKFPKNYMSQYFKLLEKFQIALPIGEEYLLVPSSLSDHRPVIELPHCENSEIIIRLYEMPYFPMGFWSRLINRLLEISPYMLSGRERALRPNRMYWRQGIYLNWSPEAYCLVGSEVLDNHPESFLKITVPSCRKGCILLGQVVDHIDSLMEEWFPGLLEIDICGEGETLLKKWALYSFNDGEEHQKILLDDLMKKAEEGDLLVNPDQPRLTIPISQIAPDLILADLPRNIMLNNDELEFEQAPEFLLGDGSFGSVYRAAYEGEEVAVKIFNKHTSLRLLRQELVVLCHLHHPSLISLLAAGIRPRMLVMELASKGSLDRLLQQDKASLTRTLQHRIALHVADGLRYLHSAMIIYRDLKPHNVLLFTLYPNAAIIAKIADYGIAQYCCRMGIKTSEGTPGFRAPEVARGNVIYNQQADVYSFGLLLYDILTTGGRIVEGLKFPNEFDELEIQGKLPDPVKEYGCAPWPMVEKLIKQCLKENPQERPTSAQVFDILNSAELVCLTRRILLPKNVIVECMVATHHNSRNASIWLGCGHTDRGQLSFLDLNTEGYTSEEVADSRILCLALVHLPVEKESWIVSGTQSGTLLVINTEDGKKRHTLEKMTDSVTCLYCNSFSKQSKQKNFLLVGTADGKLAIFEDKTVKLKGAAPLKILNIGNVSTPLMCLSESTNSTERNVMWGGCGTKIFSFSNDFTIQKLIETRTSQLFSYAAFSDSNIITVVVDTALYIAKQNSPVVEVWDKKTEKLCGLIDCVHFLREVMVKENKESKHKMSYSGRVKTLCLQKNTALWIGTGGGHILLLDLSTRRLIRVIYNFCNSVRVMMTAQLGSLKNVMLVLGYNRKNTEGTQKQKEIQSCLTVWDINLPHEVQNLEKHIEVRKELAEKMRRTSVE

JNK2 = JNK2 (Homo sapiens, UniProt P45984); experiment: KINOMEscan competition binding; conditions: read-out: %Inh JNK2
JNK2, sequence (P45984 whole entry): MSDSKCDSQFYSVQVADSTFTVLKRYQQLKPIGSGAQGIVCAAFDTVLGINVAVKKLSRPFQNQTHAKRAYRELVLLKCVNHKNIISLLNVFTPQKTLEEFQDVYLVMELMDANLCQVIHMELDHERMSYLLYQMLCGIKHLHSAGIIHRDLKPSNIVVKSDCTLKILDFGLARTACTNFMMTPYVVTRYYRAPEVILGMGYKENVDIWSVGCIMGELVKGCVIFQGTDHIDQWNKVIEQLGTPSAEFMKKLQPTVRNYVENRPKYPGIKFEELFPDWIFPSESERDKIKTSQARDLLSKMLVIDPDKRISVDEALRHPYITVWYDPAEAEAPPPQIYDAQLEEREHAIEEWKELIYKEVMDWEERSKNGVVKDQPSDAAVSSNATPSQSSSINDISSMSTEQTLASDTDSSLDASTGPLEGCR

EPHA1 = target: T2, EPHA1 (Homo sapiens, UniProt P21709); experiment: KINOMEscan competition binding; conditions: read-out: %Inh EPHA1
T2 sequence (P21709 26-976): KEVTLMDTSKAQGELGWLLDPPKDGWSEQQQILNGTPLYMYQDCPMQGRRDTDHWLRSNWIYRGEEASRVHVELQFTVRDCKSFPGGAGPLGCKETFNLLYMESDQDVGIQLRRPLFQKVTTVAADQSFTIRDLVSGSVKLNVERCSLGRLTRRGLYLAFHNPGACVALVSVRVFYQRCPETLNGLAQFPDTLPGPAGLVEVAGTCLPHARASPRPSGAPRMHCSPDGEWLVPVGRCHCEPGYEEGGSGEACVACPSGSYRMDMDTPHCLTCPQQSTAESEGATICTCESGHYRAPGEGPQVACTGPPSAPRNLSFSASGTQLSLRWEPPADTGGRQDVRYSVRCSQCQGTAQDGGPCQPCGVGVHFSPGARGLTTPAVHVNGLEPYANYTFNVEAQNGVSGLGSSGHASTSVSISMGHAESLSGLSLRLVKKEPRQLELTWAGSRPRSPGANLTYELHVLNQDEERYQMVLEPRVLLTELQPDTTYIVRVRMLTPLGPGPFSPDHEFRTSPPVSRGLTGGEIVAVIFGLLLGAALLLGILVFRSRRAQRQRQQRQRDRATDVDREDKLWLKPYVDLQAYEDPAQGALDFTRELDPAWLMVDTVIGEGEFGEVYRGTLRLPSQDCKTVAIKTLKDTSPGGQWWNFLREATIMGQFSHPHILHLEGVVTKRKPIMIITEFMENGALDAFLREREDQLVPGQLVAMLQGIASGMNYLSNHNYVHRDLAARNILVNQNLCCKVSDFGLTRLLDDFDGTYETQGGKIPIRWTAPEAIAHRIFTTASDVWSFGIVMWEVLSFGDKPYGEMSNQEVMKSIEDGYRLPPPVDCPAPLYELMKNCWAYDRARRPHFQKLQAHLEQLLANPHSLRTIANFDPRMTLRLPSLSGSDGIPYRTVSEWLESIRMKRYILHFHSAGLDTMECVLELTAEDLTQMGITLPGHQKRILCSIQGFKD

IKK-epsilon = target: T3, IKK-epsilon (Homo sapiens, UniProt Q14164); experiment: KINOMEscan competition binding; conditions: read-out: %Inh IKK-epsilon
T3 sequence (Q14164 1-716): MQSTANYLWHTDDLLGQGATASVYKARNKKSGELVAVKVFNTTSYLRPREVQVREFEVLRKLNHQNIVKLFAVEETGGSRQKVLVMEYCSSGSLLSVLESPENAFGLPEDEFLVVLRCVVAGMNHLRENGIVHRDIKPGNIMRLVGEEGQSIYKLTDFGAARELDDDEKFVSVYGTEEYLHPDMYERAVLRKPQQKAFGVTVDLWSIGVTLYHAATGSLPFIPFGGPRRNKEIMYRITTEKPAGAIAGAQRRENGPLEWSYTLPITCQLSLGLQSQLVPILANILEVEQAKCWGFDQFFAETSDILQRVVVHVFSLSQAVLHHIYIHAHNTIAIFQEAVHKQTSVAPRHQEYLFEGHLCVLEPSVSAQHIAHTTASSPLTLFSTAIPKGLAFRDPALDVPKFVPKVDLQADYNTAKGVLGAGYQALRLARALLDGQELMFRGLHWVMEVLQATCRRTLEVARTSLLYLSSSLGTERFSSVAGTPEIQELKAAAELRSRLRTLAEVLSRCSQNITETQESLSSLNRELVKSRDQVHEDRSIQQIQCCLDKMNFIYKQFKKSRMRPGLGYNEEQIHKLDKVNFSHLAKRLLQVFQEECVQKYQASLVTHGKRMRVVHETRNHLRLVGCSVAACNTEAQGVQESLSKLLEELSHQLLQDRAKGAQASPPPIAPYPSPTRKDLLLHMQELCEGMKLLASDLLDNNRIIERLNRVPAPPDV

LIMK1, sequence (P53667 whole entry): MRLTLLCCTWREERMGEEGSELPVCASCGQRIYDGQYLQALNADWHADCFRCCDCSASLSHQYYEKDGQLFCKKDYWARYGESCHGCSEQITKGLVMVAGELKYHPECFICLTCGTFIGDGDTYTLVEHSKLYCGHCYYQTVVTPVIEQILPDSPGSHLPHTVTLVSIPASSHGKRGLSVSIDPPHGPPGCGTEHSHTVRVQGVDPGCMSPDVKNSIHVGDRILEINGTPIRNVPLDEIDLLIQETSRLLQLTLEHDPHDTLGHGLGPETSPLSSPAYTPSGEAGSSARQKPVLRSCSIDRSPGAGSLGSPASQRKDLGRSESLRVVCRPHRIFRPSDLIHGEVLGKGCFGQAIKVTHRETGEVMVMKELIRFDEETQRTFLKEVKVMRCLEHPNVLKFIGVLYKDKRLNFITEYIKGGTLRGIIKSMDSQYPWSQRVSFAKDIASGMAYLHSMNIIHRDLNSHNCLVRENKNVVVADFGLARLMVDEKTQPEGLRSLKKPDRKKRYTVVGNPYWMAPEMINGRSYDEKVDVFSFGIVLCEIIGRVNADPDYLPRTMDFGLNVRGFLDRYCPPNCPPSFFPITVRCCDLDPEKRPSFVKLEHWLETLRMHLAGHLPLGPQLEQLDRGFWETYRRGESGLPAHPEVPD
HIPK3, sequence (Q9H422 whole entry): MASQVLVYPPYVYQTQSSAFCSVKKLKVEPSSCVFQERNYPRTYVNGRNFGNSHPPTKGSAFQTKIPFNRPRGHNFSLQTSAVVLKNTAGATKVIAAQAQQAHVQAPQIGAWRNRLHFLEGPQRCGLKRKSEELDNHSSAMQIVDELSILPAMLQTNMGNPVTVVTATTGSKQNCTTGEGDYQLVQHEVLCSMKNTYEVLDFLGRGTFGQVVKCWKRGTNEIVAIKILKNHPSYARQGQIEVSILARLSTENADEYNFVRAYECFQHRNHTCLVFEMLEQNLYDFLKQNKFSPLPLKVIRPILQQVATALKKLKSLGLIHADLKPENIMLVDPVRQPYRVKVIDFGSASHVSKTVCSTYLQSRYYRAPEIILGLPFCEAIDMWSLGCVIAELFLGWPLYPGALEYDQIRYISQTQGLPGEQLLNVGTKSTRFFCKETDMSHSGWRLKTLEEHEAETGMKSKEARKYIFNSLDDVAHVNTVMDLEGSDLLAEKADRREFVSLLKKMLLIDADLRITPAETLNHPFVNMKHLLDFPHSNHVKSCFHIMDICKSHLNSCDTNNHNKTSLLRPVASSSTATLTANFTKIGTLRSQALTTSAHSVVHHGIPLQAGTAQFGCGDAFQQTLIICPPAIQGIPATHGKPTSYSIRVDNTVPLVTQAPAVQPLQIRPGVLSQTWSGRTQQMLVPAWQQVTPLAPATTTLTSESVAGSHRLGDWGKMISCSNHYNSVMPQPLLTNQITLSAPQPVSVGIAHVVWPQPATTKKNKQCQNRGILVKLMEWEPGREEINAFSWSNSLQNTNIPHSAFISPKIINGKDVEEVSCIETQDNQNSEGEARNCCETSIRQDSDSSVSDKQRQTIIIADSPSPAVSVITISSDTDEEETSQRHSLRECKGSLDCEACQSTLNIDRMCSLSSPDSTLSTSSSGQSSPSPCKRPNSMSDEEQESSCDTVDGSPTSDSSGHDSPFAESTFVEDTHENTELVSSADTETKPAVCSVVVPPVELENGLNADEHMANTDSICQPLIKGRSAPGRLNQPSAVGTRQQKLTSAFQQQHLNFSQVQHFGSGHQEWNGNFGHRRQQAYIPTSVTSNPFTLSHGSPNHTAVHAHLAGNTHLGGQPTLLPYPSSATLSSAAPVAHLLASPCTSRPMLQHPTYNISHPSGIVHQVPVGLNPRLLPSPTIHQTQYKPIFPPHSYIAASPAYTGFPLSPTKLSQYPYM

Compound	inhibition at 1 µM (HIPK3) [%]	inhibition at 1 µM (LIMK1) [%]	inhibition at 1 µM (AURKA) [%]	>70 (number of kinases with %Inh >70) [1]	>80 (number of kinases with %Inh >80) [1]	>90 (number of kinases with %Inh >90) [1]	inhibition at 1 µM (LRRK2) [%]	inhibition at 1 µM (JNK2) [%]	inhibition at 1 µM (EPHA1) [%]	inhibition at 1 µM (IKK-epsilon) [%]
Cn1cc(-c2cnc(N)c3c(-c4ccc5c(c4)CCN5C(=O)Cc4ccccc4)csc23)cn1 [UNC10225012A]	7	49	24	42	36	27	3	0	11	59
O=c1cc(N2CCOCC2)nc2n(Cc3cccc(Cl)c3Cl)c(C3CC3)nn12 [UNC10225469A]	16	9	0	3	3	2	0	0	7	0
COc1cccc(OC)c1C(=O)Nc1cccc(-c2nn3ccccc3c2-c2ccnc(Nc3cccc(F)c3)n2)c1 [UNC10225310A]	0	31	32	19	19	12	0	0	4	4
CS(=O)(=O)Cc1ccc(Nc2nccc(-c3c(-c4cccc(NC(=O)C5CCCCC5)c4)nn4ncccc34)n2)cc1 [UNC10225159A]	23	22	9	12	10	5	20	49	6	32
Cc1ccc(NC(=O)Nc2cccc(C(F)(F)F)c2)cc1 [UNC10225187A]	0	0	0	4	4	3	0	26	17	0
